IC50 and EC30 data for 11 compounds are collected here from patent US20160031839A1, “ARGININE […] INHIBITORS AND USES THEREOF” (EPIZYME, INC., priority 2013, published 2016).

Each structure is given as a SMILES string. Like-named read-outs stand apart in the source and are kept apart here.

Broadly, the IC50 is the concentration that gives 50% inhibition. By EC30 is commonly meant the point of the concentration-response curve where the effect stands at 30%.

One assay addresses T1, PRMT8 (Homo sapiens, UniProt Q9NR22).
T1 construct: Full-length human PRMT8 (NM_019854.4) isoform 1 transcript clone; made in house; host or cells: E. coli BL21(DE3) Gold
The assay is described as follows: PRMT8 Biochemical Assay. An excerpt: Peptide representative of human histone H4 residues 31-45 was synthesized with an N-terminal linker-affinity tag motif and a C-terminal amide cap by 21st Century Biochemicals. The peptide was purified by high-performance liquid chromatography (HPLC) to greater than 95% purity and confirmed by liquid chromatography mass spectrometry (LC-MS). The sequence was Biot-Ahx-[…]-amide (SEQ ID NO.:8).
The resulting construct encodes an N-terminal GST tag and a thrombin cleavage sequence
The column was washed with 50 mM phosphate buffer, 100 mM NaCl, 5% glycerol, 5 mM […], pH 7.8 and PRMT8 was eluted by 100 mM phosphate in the same buffer. Protein was concentrated and buffer was exchanged to 50 mM Tris, 300 mM NaCl, 10% glycerol, 5 mM 3-mercaptoethanol, pH 7.8 by ultrafiltration. The purity of recovered protein was 89%.
General Procedure for PRMT8 Enzyme Assays on Peptide Substrates.
The assays were all performed in a buffer consisting of 20 mM Bicine (pH=7.6), 1 mM TCEP, 0.005% BSG, and 0.002% Tween 20, prepared on the day of use. Compounds in 100% DMSO (1 ul) were spotted into a polypropylene 384-well V-bottom plates (Greiner) using a Platemate Plus outfitted with a 384-channel head (Thermo Scientific). DMSO (1 ul) was added to Columns 11, 12, 23, 24, rows A-H for the maximum signal control and 1 ul of SAH, a known product and inhibitor of PRMT8, was added to columns 11, 12, 23, 24, rows I-P for the minimum signal control. A cocktail (40 ul) containing the PRMT8 enzyme was added by Multidrop Combi (Thermo-Fisher). The compounds were allowed to incubate with PRMT8 for 30 min at room temperature, then a cocktail (10 ul) containing ^3H-SAM and peptide was added to initiate the reaction (final volume=51 ul). The final concentrations of the components were as follows: PRMT8 was 1.5 nM, ^3H-SAM was 50 nM, non-radiolabeled SAM was 550 nM, peptide was 150 nM, SAH in the minimum signal control wells was 1 mM, and the DMSO concentration was 2%. The assays were stopped by the addition of non-radiolabeled SAM (10 ul) to a final concentration of 400 uM, which dilutes the ^3H-SAM to a level where its incorporation into the peptide substrate is no longer detectable. 50 ul of the reaction in the 384-well polypropylene plate was then transferred to a 384-well Flashplate and the biotinylated peptides were allowed to bind to the streptavidin surface for at least 1 hour before being washed once with 0.1% Tween20 in a Biotek ELx405 plate washer. The plates were then read in a PerkinElmer TopCount plate reader to measure the quantity of ^3H-labeled peptide bound to the Flashplate surface, measured as disintegrations per minute (dpm) or alternatively, referred to as counts per minute (cpm).
Where dpm=disintegrations per minute, cmpd=signal in assay well, and min and max are the respective minimum and maximum signal controls.
Where top and bottom are the normally allowed to float, but may be fixed at 100 or 0 respectively in a 3-parameter fit. The Hill Coefficient normally allowed to float but may also be fixed at 1 in a 3-parameter fit. Y is the % inhibition and X is the compound concentration.

Assay [1] deals with mono-methyl arginine in RKO cells. Put plainly: RKO Methylation Assay (In Cell Western). It is filed as cell-based. Particulars: Homo sapiens, 72 hours. An excerpt: RKO Methylation Assay RKO adherent cells were purchased from ATCC (American Type Culture Collection), Manassas, Va., USA. DMEM/Glutamax medium, penicillin-streptomycin, heat inactivated fetal bovine serum, 0.05% trypsin and D-PBS were purchased from Life Technologies, Grand Island, N.Y., USA. Odyssey blocking buffer, 800CW goat anti-rabbit IgG (H+L) antibody, and Licor Odyssey infrared scanner were purchased from Licor Biosciences, Lincoln, Nebr., USA. Mono-methyl arginine antibody was purchased from Cell Signaling Technology, Danvers, Mass., USA. Methanol was purchased from VWR, Franklin, Mass., USA. 10% Tween 20 was purchased from KPL, Inc., Gaithersburg, Md., USA. DRAQ5 was purchased from Biostatus Limited, Leicestershire, UK. RKO adherent cells were maintained in growth medium (DMEM/Glutamax medium supplemented with 10% v/v heat inactivated fetal bovine serum and 100 units/mL penicillin-streptomycin) and cultured at 37° C. under 5% CO2. Cell Treatment, in Cell Western (ICW) for Detection of Mono-Methyl Arginine and DNA Content. RKO cells were seeded in assay medium at a concentration of 20,000 cells per mL to a poly-D-lysine coated 384 well culture plate (BD Biosciences 356697) with 50 μL per well. Compound (100 nL) from a 96-well source plate was added directly to 384 well cell plate. Plates were incubated at 37° C., 5% CO2 for 72 hours. After three days of incubation, plates were brought to room temperature outside of the incubator for ten minutes and blotted on paper towels to remove cell media. 50 μL of ice cold 100% methanol was added directly to each well and incubated for 30 min at room temperature. After 30 min, plates were transferred to a Biotek EL406 plate washer and washed 2 times with 100 μL per well of wash buffer (1×PBS). Next 60 μL per well of Odyssey blocking buffer (Odyssey Buffer with 0.1% Tween 20 (v/v)) were added to each plate and incubated 1 hour at room temperature. Blocking buffer was removed and 20 μL per well of primary antibody was added (mono-methyl arginine diluted 1:200 in Odyssey buffer with 0.1% Tween 20 (v/v)) and plates were incubated overnight (16 hours) at 4° C. Plates were washed 5 times with 100 μL per well of wash buffer. Next 20 μL per well of secondary antibody was added (1:200 800CW goat anti-rabbit IgG (H+L) antibody, 1:1000 DRAQ5 (Biostatus limited) in Odyssey buffer with 0.1% Tween 20 (v/v)) and incubated for 1 hour at room temperature. The plates were washed 5 times with 100 μL per well wash buffer then 2 times with 100 μL per well of water. Plates were allowed to dry at room temperature then imaged on the Licor Odyssey machine which measures integrated intensity at 700 nm and 800 nm wavelengths. Both 700 and 800 channels were scanned. […] Each plate included fourteen control wells of DMSO only treatment (minimum activation) as well as fourteen control wells for maximum activation treated with 20 μM of a reference compound. The average of the ratio values for each control type was calculated and used to determine the percent activation for each test well in the plate. Reference compound was serially diluted three-fold in DMSO for a total of nine test concentrations, beginning at 20 μM. Percent activation was determined and EC30 curves were generated using triplicate

Setting [2] is: Table 2, biochemical evaluation, read-out: PRMT8 IC50 (class).
[3] abbreviates: Table 2a, numerical, single experiment or average of multiple experiments, read-out: PRMT8 IC50.
[4] abbreviates: numerical, single experiment or average of multiple experiments, read-out: In Cell Western EC30.
Setting [5] is: read-out: In Cell Western EC30 (class).

T1 sequence (Q9NR22 whole entry, canonical isoform): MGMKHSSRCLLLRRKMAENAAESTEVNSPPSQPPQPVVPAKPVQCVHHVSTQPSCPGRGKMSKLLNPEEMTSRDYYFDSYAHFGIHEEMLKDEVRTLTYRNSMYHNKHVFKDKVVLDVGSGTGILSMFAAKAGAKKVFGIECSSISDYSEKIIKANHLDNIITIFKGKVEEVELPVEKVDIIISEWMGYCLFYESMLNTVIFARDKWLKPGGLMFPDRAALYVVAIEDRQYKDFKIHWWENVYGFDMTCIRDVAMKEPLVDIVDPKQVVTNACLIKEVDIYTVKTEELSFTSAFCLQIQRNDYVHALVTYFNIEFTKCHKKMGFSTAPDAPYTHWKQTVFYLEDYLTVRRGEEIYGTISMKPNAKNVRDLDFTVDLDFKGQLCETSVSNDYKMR

Regarding `CN(CCN)Cc1ncoc1-c1ccc(C#N)cc1` [Compound 1, 4-(4-(((2-aminoethyl)(methyl)amino)methyl)oxazol-5-yl)benzonitrile], the figures for the IC50 on PRMT8 (setting [2]) and on PRMT8 (setting [3]) were 3.01 to 10 µM and 1.87 µM, respectively. The results for the 30% effect concentration (EC30) in assay [1] (setting [4]) and in assay [1] (setting [5]) were 14.2 µM and ≥ 12 µM, respectively.
On the same counts, the results for `CN(CCN)Cc1ccnn1-c1ccc(C#N)cc1` [Compound 2, 4-(5-(((2-aminoethyl)(methyl)amino)methyl)-1H-pyrazol-1-yl)benzonitrile] are 1.01 to 3 µM, 1.3 µM, 15.1 µM and ≥ 12 µM.
Taken in the same sequence, the figures for `CC(C)Oc1ccc(-n2nccc2CN(C)CCN)cc1` [Compound 8, N^1-((1-(4-isopropoxyphenyl)-1H-pyrazol-5-yl)methyl)-N^1-methylethane-1,2-diamine] were < 0.1 µM, 0.0897 µM, 1.63 µM and ≤ 3 µM.
Taken in the same sequence, the figures for `CN(CCN)Cc1nsnc1-c1ccc(C#N)cc1` [Compound 7, 4-(4-(((2-aminoethyl)(methyl)amino)methyl)-1,2,5-thiadiazol-3-yl)benzonitrile] were 0.101 to 1 µM, 0.445 µM, > 20 µM and ≥ 12 µM.
For `CN(CCN)Cc1oncc1-c1ccc(F)cc1` [Compound 11, N^1-((4-(4-fluorophenyl)isoxazol-5-yl)methyl)-N^1-methylethane-1,2-diamine], the IC50 on PRMT8 (setting [2]) and at PRMT8 (setting [3]) was > 10 µM in each case. In addition, the results for the 30% effect concentration (EC30) in assay [1] (setting [4]) and in assay [1] (setting [5]) were > 20 µM and ≥ 12 µM, respectively.
As for `CN(CCN)Cc1ocnc1-c1ccc(C#N)cc1` [Compound 4, 4-(5-(((2-aminoethyl)(methyl)amino)methyl)oxazol-4-yl)benzonitrile], the concentration for half-maximal inhibition (IC50) at PRMT8 (setting [2]) is 0.101 to 1 µM; at PRMT8 (setting [3]), 0.509 µM. In addition, the 30% effect concentration (EC30) in assay [1] (setting [4]) was 1.41 µM; in assay [1] (setting [5]), ≤ 3 µM.
Taken in the same sequence, the figures for `CN(CCN)Cc1n[nH]nc1-c1ccc(C#N)cc1` [Compound 3, 4-(5-(((2-aminoethyl)(methyl)amino)methyl)-2H-1,2,3-triazol-4-yl)benzonitrile] were 1.01 to 3 µM, 1.55 µM, 18.6 µM and ≥ 12 µM.
In the case of `CN(CCN)Cc1cnnn1-c1ccc(C#N)cc1` [Compound 5, 4-(5-(((2-aminoethyl)(methyl)amino)methyl)-1H-1,2,3-triazol-1-yl)benzonitrile], the figures for the 30% effect concentration (EC30) in assay [1] (setting [4]) and in assay [1] (setting [5]) were > 20 µM and ≥ 12 µM, respectively.
In the case of `CN(CCN)Cc1cncn1-c1ccc(C#N)cc1` [Compound 6, 4-(5-(((2-aminoethyl)(methyl)amino)methyl)-1H-imidazol-1-yl)benzonitrile], the 50% inhibitory concentration (IC50) at PRMT8 (setting [2]) is 3.01 to 10 µM; at PRMT8 (setting [3]), 8.21 µM. Further, the 30% effect concentration (EC30) was > 20 µM in assay [1] (setting [4]) and ≥ 12 µM in assay [1] (setting [5]).
On the same counts, the results for `CN(CCN)Cc1ccnn1-c1ccc(Oc2ccccc2)cc1` [Compound 9] are < 0.1 µM, 0.0718 µM, 2.31 µM and ≤ 3 µM.
Taken in the same sequence, the figures for `CN(CCN)Cc1[nH]cnc1-c1ccc(C#N)cc1` [Compound 10, 4-(5-(((2-aminoethyl)(methyl)amino)methyl)-1H-imidazol-4-yl)benzonitrile] were 3.01 to 10 µM, 3.13 µM, > 20 µM and ≥ 12 µM.
